Data reported in patent US11919905B2, “Substituted benzo[f]imidazo[1,2-a][1,4]diazepines as anesthetics” (HANGZHOU ADAMERCK PHARMLABS INC., priority 2017, dated 2024).

What was measured:
Type in all cases: in vivo
ICR mice [1] = experiment: Disappearance of righting reflex in mice induced by drugs (single i.v. bolus); conditions: 100 mg/kg single bolus via tail vein, male ICR mice
Description: After ICR mice (male, 18-25 g) were fast injected with the same dose (100 mg/kg) of the test drug in a single bolus via the tail vein, the incubation period and the duration of disappearance of the righting reflex in mice were recorded. Wherein, the incubation period refers to the time from the start of administration to the disappearance of the animal's righting reflex, and the duration refers to the time from the disappearance of the righting reflex to the recovery.

ICR mice [2] = experiment: Effective dose and lethal dose of intravenous administration in mice; conditions: single bolus via tail vein, male ICR mice; for minimal effective dose: Mus musculus, iv, read-out: Effective dose (lowest dose causing the righting reflex to disappear)
Description: ICR mice (males, 18-25 g) were randomly grouped and were fast given a single bolus of different doses of test drug via the tail vein, and the lowest dose causing the righting reflex to disappear (effective dose) and the dose causing animal death (lethal dose) were recorded, and the treatment windows (lethal dose/effective dose) were calculated.

mice [3] = experiment: Multiple (9 times) i.v. administrations: duration of disappearance of righting reflex in mice; conditions: 20 mg/kg i.v.
Description: Animals in each group were given the corresponding drug solution multiple times by the tail vein injection (i.v.) in accordance with the corresponding group, 0.1 ml per mouse each time, for 9 times of consecutive injections (the administration group mice were injected when the righting reflex was recovered). The durations of each disappearance of righting reflex were recorded, and the data was expressed as an average.

mice [4] = experiment: Single i.v. administration: autonomous activity of mice; conditions: single i.v. 20 mg/kg
Description: Animals in each group were tested for their autonomous activities, each mouse for 10 minutes. After that, the animals in each group were given a single corresponding drug solution by the tail vein injection (i.v.) according to the corresponding group, 0.1 ml per 10 g body weight, and the autonomous activity of the mice was measured immediately after the administration, and the recording time was 50 min. Data were expressed as mean±standard deviation. Wherein, the dosage of propofol was 20 mg/kg.

Structure (SMILES) | Duration (time from disappearance of righting reflex to recovery) (ICR mice [1]) | Incubation period (time from start of administration to disappearance of righting reflex) (ICR mice [1]) | minimal effective dose (ICR mice [2]) | Lethal dose (dose causing animal death) (ICR mice [2]) | Treatment window (lethal dose/effective dose) (ICR mice [2]) | further results
COC(=O)CC[C@@H]1N=C(c2ccccn2)c2cc(F)c(C)cc2-n2c(C)cnc21.O=S(=O)(O)c1ccccc1 [Compound 1-1] | 7.00 min | 0.35 min | 60 mg/kg | 320 mg/kg | 5.3 | –
COC(=O)CC[C@@H]1N=C(c2ccccn2)c2cc(F)c(C)cc2-n2c(C)cnc21.Cl [Compound 1-3] | 7.20 min | 0.30 min | 60 mg/kg | 280 mg/kg | 4.67 | –
COC(=O)CC[C@@H]1N=C(c2cccnc2)c2cc(F)c(C)cc2-n2c(C)cnc21.Cc1ccc(S(=O)(=O)O)cc1 [Compound 1-4] | 9.32 min | 0.37 min | 80 mg/kg | 280 mg/kg | 3.5 | –
COC(=O)CC[C@@H]1N=C(c2ccncc2)c2cc(F)c(C)cc2-n2c(C)cnc21.Cc1ccc(S(=O)(=O)O)cc1 [Compound 1-5] | 8.21 min | 0.40 min | 60 mg/kg | 320 mg/kg | 5.3 | –
COC(=O)CC[C@@H]1N=C(c2ccccn2)c2cc(Br)c(C)cc2-n2c(C)cnc21.Cc1ccc(S(=O)(=O)O)cc1 [Compound 1-6] | 7.98 min | 0.47 min | 100 mg/kg | 380 mg/kg | 3.8 | –
COC(=O)CC[C@@H]1N=C(c2ccccn2)c2cc([N+](=O)[O-])c(C)cc2-n2c(C)cnc21.Cc1ccc(S(=O)(=O)O)cc1 [Compound 1-7] | 8.39 min | 0.60 min | 40 mg/kg | 240 mg/kg | 6 | –
COC(=O)CC[C@@H]1N=C(c2ccccn2)c2cc(C(F)(F)F)c(C)cc2-n2c(C)cnc21.Cc1ccc(S(=O)(=O)O)cc1 [Compound 1-8] | 8.60 min | 0.55 min | 40 mg/kg | 260 mg/kg | 6.5 | –
COC(=O)CC[C@@H]1N=C(c2ccccn2)c2cc(OC)c(C)cc2-n2c(C)cnc21.Cc1ccc(S(=O)(=O)O)cc1 [Compound 1-9] | 8.77 min | 0.63 min | 60 mg/kg | 260 mg/kg | 4.3 | –
COC(=O)CC[C@@H]1N=C(c2ccccn2)c2cc(OC)c(OC)cc2-n2c(C)cnc21.Cc1ccc(S(=O)(=O)O)cc1 [Compound 1-10] | 7.86 min | 0.48 min | 80 mg/kg | 300 mg/kg | 3.75 | –
COC(=O)CC[C@@H]1N=C(c2ccccn2)c2cc(F)c(F)cc2-n2c(C)cnc21.Cc1ccc(S(=O)(=O)O)cc1 [Compound 1-11] | 7.28 min | 0.53 min | 80 mg/kg | 320 mg/kg | 4 | –
COC(=O)CC[C@@H]1N=C(c2ccccn2)c2cc(Cl)c(Cl)cc2-n2c(C)cnc21.Cc1ccc(S(=O)(=O)O)cc1 [Compound 1-12] | 8.35 min | 0.42 min | 60 mg/kg | 300 mg/kg | 5 | –
COC(=O)CC[C@@H]1N=C(c2ccccn2)c2cc(C)c(C)cc2-n2c(C)cnc21.Cc1ccc(S(=O)(=O)O)cc1 [Compound 1-13] | – | – | 80 mg/kg | 320 mg/kg | 4 | –
COC(=O)CC[C@@H]1N=C(c2cccnc2)c2cc(F)c(C(F)(F)F)cc2-n2c(C)cnc21.Cc1ccc(S(=O)(=O)O)cc1 [Compound 1-14] | 6.30 min | 0.58 min | 100 mg/kg | 360 mg/kg | 3.6 | –
COC(=O)CC[C@@H]1N=C(c2ccccn2)c2cc(OC)c(F)cc2-n2c(C)cnc21.Cc1ccc(S(=O)(=O)O)cc1 [Compound 1-15] | 9.02 min | 0.54 min | 60 mg/kg | 320 mg/kg | 5.3 | –
CCOC(=O)CC[C@@H]1N=C(c2cccnc2)c2cc(C)c(F)cc2-n2c(C)cnc21.Cc1ccc(S(=O)(=O)O)cc1 [Compound 1-16] | 9.35 min | 0.86 min | 40 mg/kg | 280 mg/kg | 7 | –
CCOC(=O)CC[C@@H]1N=C(c2ccccn2)c2cc(CC)c(OC)cc2-n2c(C)cnc21.Cc1ccc(S(=O)(=O)O)cc1 [Compound 1-17] | 7.24 min | 0.75 min | 80 mg/kg | 360 mg/kg | 4.5 | –
CC(C)c1cccc(C(C)C)c1O [Propofol, reference compound] | – | – | – | – | – | Percentage of extension of righting reflex disappearance (mice [3]; administration 1): 100%; righting reflex disappearance time (mice [3]; administration 1): 4.0 min; Percentage of extension of righting reflex disappearance (mice [3]; administration 2): 144%; righting reflex disappearance time (mice [3]; administration 2): 5.8 min; Percentage of extension of righting reflex disappearance (mice [3]; administration 3): 259%; righting reflex disappearance time (mice [3]; administration 3): 10.4 min; Percentage of extension of righting reflex disappearance (mice [3]; administration 4): 300%; righting reflex disappearance time (mice [3]; administration 4): 12.1 min; Percentage of extension of righting reflex disappearance (mice [3]; administration 5): 292%; righting reflex disappearance time (mice [3]; administration 5): 11.7 min; Percentage of extension of righting reflex disappearance (mice [3]; administration 6): 378%; righting reflex disappearance time (mice [3]; administration 6): 15.2 min; Percentage of extension of righting reflex disappearance (mice [3]; administration 7): 439%; righting reflex disappearance time (mice [3]; administration 7): 17.6 min; Percentage of extension of righting reflex disappearance (mice [3]; administration 8): 404%; righting reflex disappearance time (mice [3]; administration 8): 16.2 min; Percentage of extension of righting reflex disappearance (mice [3]; administration 9): 426%; righting reflex disappearance time (mice [3]; administration 9): 17.1 min; time after administration at which mice were awake (mice [4]): 5 to 10 min; time after administration until autonomic activities basically recovered (mice [4]): 15 min
